Assay results from patent US9012458B2, “Antitumor agent using compounds having kinase inhibitory effect in combination” (Eisai R&D Management Co., Ltd., priority 2010, dated 2015).
Where a name gives a salt, the structure may show the parent alone.

Key:
Format in all cases: in vivo
[1] = tested on: human gastric cancer cell line (IM95m); experiment: Combined effect in model animal transplanted with human gastric cancer cell line (IM95m); conditions: IM95m s.c. in nude mouse, Compound A 10 mg/kg, Compound B 100 mg/kg, oral once daily, average ± standard deviation
Description: The human gastric cancer cell line IM95m (Health Science Research Resources Bank) was cultured using a DMEM medium (Wako Pure Chemical Industries, Ltd) containing […] glucose, 10% FBS, and 10 μg/mL insulin in a 5% CO2 incubator under the condition of 37° C. When the cells reached a state of approximately 80% confluency, the cells were collected using trypsin-EDTA. To these cells, a Hanks' Balanced Salt Solution containing 50% Matrigel was added to prepare a suspension at 1.0×10^8 cells/mL. The cell suspension thus obtained was subcutaneously transplanted at the lateral side of the body of a nude mouse (CAnN.Cg-Foxn1nu/CrlCrlj, Charles River Laboratories Japan, Inc.) in an amount of 0.1 mL, where each group contained six mice. From 13 days after the transplantation, Compound A (10 mg/kg, once daily, for 21 days) and Compound B (100 mg/kg, once daily, for 21 days) were orally administered continuously, either individually or both in a row.
Setting the initial day of administration at Day 0, the major axis and the minor axis of a tumor developed in each mouse were measured using Digimatic caliper (Mitsutoyo Corporation) thereafter on Day 4, 7, 11, 14, 18 and 21.
(§1) The tumor volume and the relative tumor volume were calculated according to the equations below. TV=major axis (mm)×minor axis^2 (mm^2)/2 RTV=TV on the day of measurement/TV on the initial day of administration

[2] = tested on: human glioblastoma cell line (U87MG); experiment: Combined effect in model animal transplanted with human glioblastoma cell line (U87MG); conditions: U87MG s.c. in nude mouse, Compound A 10 mg/kg, Compound B 100 mg/kg, oral once daily, average ± standard deviation
Description: (§2) The human glioblastoma cell line (U87MG) (ATCC) was cultured using a 10% FBS-containing E-MEM medium (SIGMA) in a 5% CO2 incubator under the condition of 37° C. When the cells reached a state of approximately 80% confluency, the cells were collected using trypsin-EDTA. To these cells, a Hanks' Balanced Salt Solution containing 50% Matrigel was added to prepare a suspension at a concentration of 5.0×10^7 cells/mL. The cell suspension thus obtained was subcutaneously transplanted at the lateral side of the body of a nude mouse (CAnN.Cg-FOXn1nu/CrlCrlj, Charles River Laboratories Japan, Inc.) in an amount of 0.1 mL, where each group contained six mice. Compound A (10 mg/kg, once daily, for 21 days) and Compound B (100 mg/kg, once daily, for 21 days) were orally administered, either individually or both in a row.
Setting the initial day of administration at Day 0, the major axis and the minor axis of a tumor developed in each mouse were measured using Digimatic caliper (Mitsutoyo Corporation) thereafter on Day 2, 5, 7, 9, 12, 14, 16, 19, and 21.
as §1

[3] = tested on: human pancreatic cancer cell line (KP-4); experiment: Combined effect in model animal transplanted with human pancreatic cancer cell line (KP-4); conditions: KP-4 s.c. in nude mouse, Compound A 10 mg/kg, Compound B 100 mg/kg, oral once daily, average ± standard deviation
Description: The human pancreatic cancer cell line KP-4 (acquired from National Hospital Organization Kyushu Cancer Center) was cultured using a 10% FBS-containing RPMI 1640 medium (SIGMA) in a 5% CO2 incubator under the condition of 37° C. When the cells reached a state of approximately 80% confluency, the cells were collected using trypsin-EDTA. To these cells, a Hanks' Balanced Salt Solution containing 50% Matrigel was added to prepare a suspension at 5.0×10^7 cells/mL. The cell suspension thus obtained was subcutaneously transplanted at the lateral side of the body of a nude mouse (CAnN.Cg-Foxn1nu/CrlCrlj, Charles River Laboratories Japan, Inc.) in an amount of 0.1 mL, where each group contained six mice. From 11 days after the transplantation, Compound A (10 mg/kg, once daily, for 17 days) and Compound B (100 mg/kg, once daily, for 17 days) were orally administered, either individually or both in a row.
Setting the initial day of administration at Day 0, the major axis and the minor axis of a tumor developed in each mouse were measured using Digimatic caliper (Mitsutoyo Corporation) thereafter on Day 3, 7, 10, 14, and 17.
as §1

[4] = tested on: human ovarian cancer cell line (A2780); experiment: Combined effect in model animal transplanted with human ovarian cancer cell line (A2780); conditions: A2780 s.c. in nude mouse, Compound A 10 mg/kg, Compound B 100 mg/kg, oral once daily, average ± standard deviation
Description: as §2, with “ovarian cancer” for “glioblastoma”, “A2780” for “(U87MG)”, “RPMI 1640” for “E-MEM”, “(CAnN.Cg-Foxn1nu/CrlCrlj,” for “(CAnN.Cg-FOXn1nu/CrlCrlj,”, “10” for “21”
Setting the initial day of administration at Day 0, the major axis and the minor axis of a tumor developed in each mouse were measured using Digimatic caliper (Mitsutoyo Corporation) thereafter on Day 3, 5, 8, and 10.
as §1

Compound	RTV (relative tumor volume) Day 4 [1]	RTV (relative tumor volume) Day 7 [1]	RTV (relative tumor volume) Day 11 [1]	RTV (relative tumor volume) Day 14 [1]	RTV (relative tumor volume) Day 18 [1]	RTV (relative tumor volume) Day 21 [1]	RTV (relative tumor volume) Day 2 [2]	RTV (relative tumor volume) Day 5 [2]	RTV (relative tumor volume) Day 7 [2]	RTV (relative tumor volume) Day 9 [2]	RTV (relative tumor volume) Day 12 [2]	RTV (relative tumor volume) Day 14 [2]	RTV (relative tumor volume) Day 16 [2]	RTV (relative tumor volume) Day 19 [2]	RTV (relative tumor volume) Day 21 [2]	RTV (relative tumor volume) Day 3 [3]	RTV (relative tumor volume) Day 7 [3]	RTV (relative tumor volume) Day 10 [3]	RTV (relative tumor volume) Day 14 [3]	RTV (relative tumor volume) Day 17 [3]	also measured
COc1cc2nccc(Oc3ccc(NC(=O)NC4CC4)c(Cl)c3)c2cc1C(N)=O [Compound A, 4-(3-chloro-4-(cyclopropylaminocarbonyl)aminophenoxy)-7-methoxy-6-quinolinecarboxamide mesylate]	1.53 ± 0.12	2.10 ± 0.18	2.65 ± 0.37	2.65 ± 0.49	2.80 ± 0.47	3.18 ± 0.57	0.95 ± 0.08	1.27 ± 0.07	1.59 ± 0.16	1.85 ± 0.13	3.29 ± 0.32	4.76 ± 0.49	6.19 ± 0.95	9.60 ± 1.99	11.53 ± 2.57	1.67 ± 0.16	2.89 ± 0.74	3.77 ± 1.26	4.83 ± 1.75	5.81 ± 2.17	RTV (relative tumor volume) Day 3 [4]: 1.92 ± 0.17; RTV (relative tumor volume) Day 5 [4]: 4.77 ± 0.85; RTV (relative tumor volume) Day 8 [4]: 9.51 ± 2.44; RTV (relative tumor volume) Day 10 [4]: 12.37 ± 3.53
CN1CCN(C2CCN(C(=O)Nc3cc(Oc4ccc(NC(=O)C5(C(=O)Nc6ccc(F)cc6)CC5)c(F)c4)ccn3)CC2)CC1 [Compound B, N-(2-fluoro-4-{[2-({[4-(4-methylpiperazin-1-yl)piperidin-1-yl]carbonyl}amino)pyridin-4-yl]oxy}phenyl)-N′-(4-fluorophenyl)cyclopropane-1,1-dicarboxamide tartrate]	1.12 ± 0.08	1.24 ± 0.15	1.75 ± 0.17	1.85 ± 0.16	3.09 ± 0.48	4.02 ± 1.05	0.69 ± 0.05	0.61 ± 0.05	0.56 ± 0.10	0.57 ± 0.07	0.65 ± 0.08	0.73 ± 0.12	0.93 ± 0.13	1.65 ± 0.37	2.23 ± 0.51	1.71 ± 0.26	3.33 ± 1.06	4.72 ± 1.55	6.53 ± 2.19	9.05 ± 3.71	RTV (relative tumor volume) Day 3 [4]: 2.23 ± 0.42; RTV (relative tumor volume) Day 5 [4]: 7.01 ± 1.54; RTV (relative tumor volume) Day 8 [4]: 15.70 ± 2.27; RTV (relative tumor volume) Day 10 [4]: 21.29 ± 2.76
